Patent US9302999B2, “Substituted triazoles as herbicides” (E. I. DU PONT DE NEMOURS AND COMPANY, priority 2012, dated 2016)

Key:
Assay type in all cases: in vivo
[1] = test system: surinam grass (Brachiaria decumbens); assay: Test C pre-/postemergence: surinam grass
Method in brief: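 Visual injury scored 0–100 (100 = complete control) against untreated controls after 13–15 greenhouse days. Surfactant-containing solvent formulations applied either to soil after sowing (loam/sand) or over 1- to 4-leaf plants, 2–18 cm tall.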

[2] = test system: barley (winter barley, Hordeum vulgare); assay: Test C postemergence: barley
Method in brief: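 Response values are visual ratings, 0 (no effect) to 100 (complete control), made by comparison with untreated controls 13 to 15 days after postemergence treatment of greenhouse-grown potted plants that were 2 to 18 cm high at spraying.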

rice (Oryza sativa) = assay: Test C flooded paddy test: rice; conditions: scale 0 to 100 (0 no effect, 100 complete control)
Method in brief: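 Greenhouse plants treated at the 2-leaf stage by dosing the flood water (3 cm depth, maintained) were compared with controls after 13 to 15 days and rated 0 to 100, where 100 means complete control; a dash marks no test result.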

[3] = test system: blackgrass (Alopecurus myosuroides); assay: Test D pre-/postemergence: blackgrass; conditions: Postemergence; for Plant response rating, Blackgrass: scale 0 to 100
Source text: (§1) Seeds of plant species selected from bluegrass (annual bluegrass, Poa annua), blackgrass (Alopecurus myosuroides), canarygrass (Phalaris minor), chickweed (common chickweed, Stellaria media), galium (catchweed bedstraw, Galium aparine), bromegrass, downy (downy bromegrass, Bromus tectorum), field poppy (Papaver rhoeas), field violet (Viola arvensis), foxtail, green (green foxtail, Setaria viridis), deadnettle (henbit deadnettle, Lamium amplexicaule), ryegrass, Italian (Italian ryegrass, Lolium multiflorum), kochia (Kochia scoparia), lambsquarters (Chenopodium album), oilseed rape (Brassica napus), pigweed (Amaranthus retroflexus), Russian thistle (Salsola iberica), chamomile (scentless chamomile, Matricaria inodora), speedwell (bird's-eye speedwell, Veronica persica), barley, spring (spring barley, Hordeum vulgare), wheat, spring (spring wheat, Triticum aestivum), buckwheat, wild (wild buckwheat, Polygonum convolvulus), mustard, wild (wild mustard, Sinapis arvensis), oat, wild (wild oat, Avena fatua), radish, wild (wild radish, Raphanus raphanistrum), windgrass (Apera spica-venti), barley, winter (winter barley, Hordeum vulgare), and wheat, winter (winter wheat, Triticum aestivum) were planted into a silt loam soil and treated preemergence with test chemicals formulated in a non-phytotoxic solvent mixture which included a surfactant. At the same time, these same crop and weed species were planted in pots containing the planting medium comprising spaghnum peat moss, vermiculite, wetting agent and starter nutrients and treated with postemergence applications of the test chemicals formulated in the same manner. Plants ranged in height from 2 to 18 cm (1- to 4-leaf stage).
(§2) Treated plants and controls were maintained in a controlled growth environment for 14 to 21 days after which time all species were compared to controls and visually evaluated. Plant response ratings, summarized in Table D, are based on a scale of 0 to 100 where 0 is no effect and 100 is complete control. A dash (-) response means no test result.

[4] = test system: chickweed (common chickweed, Stellaria media); assay: Test D pre-/postemergence: chickweed; conditions: Postemergence; for Plant response rating, Chickweed: scale 0 to 100
Method in brief: (§3)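 Applied as a non-phytotoxic solvent formulation with surfactant, compounds were tested preemergence in silt loam and postemergence on seedlings 2 to 18 cm high in peat-vermiculite medium. Evaluation was visual, 0 meaning no effect and 100 complete control, at 14 to 21 days.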

[5] = test system: ryegrass, Italian (Italian ryegrass, Lolium multiflorum); assay: Test D pre-/postemergence: ryegrass, Italian; conditions: Postemergence; for Plant response rating, Ryegrass, Italian: scale 0 to 100
Method in brief: as §3

[6] = test system: Russian thistle (Salsola iberica); assay: Test D pre-/postemergence: Russian thistle; conditions: Postemergence; for Plant response rating, Russian Thistle: scale 0 to 100
Method in brief: as §3

[7] = test system: buckwheat, wild (wild buckwheat, Polygonum convolvulus); assay: Test D pre-/postemergence: buckwheat, wild; conditions: Postemergence; for Plant response rating, Buckwheat, Wild: scale 0 to 100
Source text: as §1, §2

[8] = Postemergence, 31 g ai/ha, scale 0 to 100 (0 no effect, 100 complete control)
[9] = Postemergence, 62 g ai/ha, scale 0 to 100 (0 no effect, 100 complete control)
[10] = Postemergence, 125 g ai/ha, scale 0 to 100, 0 no effect, 100 complete control
[11] = 31 g ai/ha, scale 0 to 100 (0 no effect, 100 complete control)
[12] = 62 g ai/ha, scale 0 to 100 (0 no effect, 100 complete control)
[13] = 125 g ai/ha, scale 0 to 100, 0 no effect, 100 complete control
[14] = Postemergence, 250 g ai/ha, scale 0 to 100
[15] = 250 g ai/ha, scale 0 to 100 (0 no effect, 100 complete control)

Row | Compound | Plant response rating, Surinam Grass [1, 8] | Plant response rating, Surinam Grass [1, 9] | Plant response rating, Surinam Grass [1, 10] | Plant response rating, Barley [2, 11] | Plant response rating, Barley [2, 12] | Plant response rating, Barley [2, 13] | Plant response rating, Surinam Grass [1, 14] | Plant response rating, Barley ([2]; 250 g ai/ha, scale 0 to 100) | Plant response rating: Blackgrass [3, 11] | Plant response rating: Blackgrass [3, 12] | Plant response rating: Blackgrass [3, 13] | Plant response rating, Blackgrass ([3]; 16 g ai/ha) | Plant response rating: Chickweed [4, 11] | Plant response rating: Chickweed [4, 12] | Plant response rating: Chickweed [4, 13] | Plant response rating, Chickweed ([4]; 16 g ai/ha) | Plant response rating: Ryegrass, Italian [5, 11] | Plant response rating: Ryegrass, Italian [5, 12] | Plant response rating: Ryegrass, Italian [5, 13] | Plant response rating, Ryegrass, Italian ([5]; 16 g ai/ha) | also measured
1 | Cc1nn(-c2ccc(C(F)(F)F)cc2)nc1Cc1cccc(C(F)(F)F)c1 [Compound 124] | 10 | 15 | 20 | 15 | 30 | 30 |  |  |  |  |  |  |  |  |  |  |  |  |  |  | Plant response rating, Surinam Grass ([1]; Postemergence, 16 g ai/ha, scale 0 to 100, 0 no effect, 100 complete control): 5; Plant response rating, Barley ([2]; 16 g ai/ha, scale 0 to 100, 0 no effect, 100 complete control): 5; Plant response rating, Rice (rice (Oryza sativa); Flood (flooded paddy test), 125 g ai/ha, visual rating after 13 to 15 days): 15; Plant response rating, Rice (rice (Oryza sativa); Flood (flooded paddy test), 250 g ai/ha, visual rating after 13 to 15 days): 20; Plant response rating, Rice (rice (Oryza sativa); Flood, 31 g ai/ha): 0; Plant response rating, Rice (rice (Oryza sativa); Flood, 62 g ai/ha): 0
2 | Cc1nn(-c2ccnc(C(F)(F)F)c2)nc1Cc1ccnc(C(F)(F)F)c1 [Compound 137] | 40 | 45 | 45 | 10 | 10 | 30 | 45 | 35 | 30 | 50 | 70 | 10 | 50 | 80 | 85 | 40 | 10 | 25 | 35 | 0 | Plant response rating: Blackgrass [3, 15]: 80; Plant response rating: Chickweed [4, 15]: 90; Plant response rating: Ryegrass, Italian [5, 15]: 40; Plant response rating: Russian Thistle [6, 12]: 85; Plant response rating: Russian Thistle [6, 13]: 85; Plant response rating: Russian Thistle [6, 15]: 90; Plant response rating, Russian Thistle ([6]; 16 g ai/ha): 30; Plant response rating: Buckwheat, Wild [7, 11]: 30; Plant response rating: Buckwheat, Wild [7, 12]: 65; Plant response rating: Buckwheat, Wild [7, 13]: 65; Plant response rating: Buckwheat, Wild [7, 15]: 80; Plant response rating, Buckwheat, Wild ([7]; 16 g ai/ha): 30
3 | Cc1nn(-c2ccc(F)c(F)c2)nc1Oc1ccnc(C(F)(F)F)c1 [Compound 145] | 25 | 30 | 60 | 15 | 20 | 35 | 75 | 45 | 20 | 25 | 30 | 20 | 60 | 80 | 90 | 75 | 10 | 15 | 30 | 0 | Plant response rating, Surinam Grass ([1]; Preemergence, 31 g ai/ha, scale of 0 to 100, 0 is no effect, 100 is complete control): 35; Plant response rating, Surinam Grass ([1]; Preemergence, 62 g ai/ha, scale of 0 to 100, 0 is no effect, 100 is complete control): 55; Plant response rating, Surinam Grass ([1]; Preemergence, 125 g ai/ha, scale 0 to 100, 0 no effect, 100 complete control): 100; Plant response rating, Surinam Grass ([1]; Preemergence, 250 g ai/ha, scale 0 to 100, 0 no effect, 100 complete control): 100; Plant response rating, Blackgrass ([3]; 8 g ai/ha): 5; Plant response rating, Chickweed ([4]; 8 g ai/ha): 40; Plant response rating, Ryegrass, Italian ([5]; 8 g ai/ha): 0; Plant response rating: Russian Thistle [6, 11]: 95; Plant response rating: Russian Thistle [6, 12]: 98; Plant response rating: Russian Thistle [6, 13]: 100; Plant response rating, Russian Thistle ([6]; 8 g ai/ha): 10; Plant response rating, Russian Thistle ([6]; 16 g ai/ha): 40; Plant response rating: Buckwheat, Wild [7, 11]: 35; Plant response rating: Buckwheat, Wild [7, 12]: 45; Plant response rating: Buckwheat, Wild [7, 13]: 85; Plant response rating, Buckwheat, Wild ([7]; 8 g ai/ha): 15; Plant response rating, Buckwheat, Wild ([7]; 16 g ai/ha): 30
